Experimental data: the supplement of paper PMC10307832

How the values were obtained:
Assay in all cases: relative viability (nuclei count vs DMSO), 5 days (fraction); higher = more cells survive
[1] = compound: C1/C(=C\C2=CC=CS2)/C(=O)/C(=C/C3=CC=CS3)/C1 + O=C(CCCCCCC(=O)Nc1ccccc1)NO [Vorinostat] (partner 1 µM)
How it was run: (§1)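 Cells from lung cancer lines were seeded into 1536-well plates and, one day later, dosed by pin tool. Treatments were either a single drug or a fixed dose of an anchor drug with five library-drug doses (not always all listed) in √10 steps. After 5 days, nuclei were stained in a one-step fixation (final 0.05% Triton X-100, 1% formaldehyde, 1 ug/ml Hoechst) and counted on 4× images, and relative viability is the treated-to-vehicle nuclei ratio, as the median of duplicate plates.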

[2] = compound: C[C@]12O[C@H](C[C@]1(O)CO)n1c3ccccc3c3c4c(c5c6ccccc6n2c5c31)CNC4=O [Lestaurtinib] + C[C@]1(O)C[C@@H](c2nc(-c3ccc4ccc(-c5ccccc5)nc4c3)c3c(N)nccn32)C1 [Linsitinib] (partner 1 µM)
How it was run: as §1

[3] = compound: C1=CC(=CC=C1C2=CC(=C(S2)NC(=O)N)C(=O)N)F [TPCA-1] + N=C(N)NC(=N)NCCc1ccccc1 [Phenformin] (partner 250 µM)
How it was run: as §1

[4] = compound: C1/C(=C\C2=CC=CS2)/C(=O)/C(=C/C3=CC=CS3)/C1 + N=C(N)NC(=N)NCCc1ccccc1 [Phenformin] (partner 250 µM)
How it was run: as §1

UMC-11
relative viability ([1]; first compound 0.2 µM): 0.361
relative viability ([1]; first compound 0.6325 µM): 0.36
relative viability ([1]; first compound 2 µM): 0.43
relative viability ([1]; first compound 6.325 µM): 0.26
relative viability ([1]; first compound 20 µM): 0.394
relative viability ([2]; first compound 0.005 µM): 1.08
relative viability ([2]; first compound 0.01581 µM): 1.06
relative viability ([2]; first compound 0.05 µM): 0.575
relative viability ([2]; first compound 0.1581 µM): 0.339
relative viability ([2]; first compound 0.5 µM): 0.175
relative viability ([3]; first compound 0.04 µM): 0.373
relative viability ([3]; first compound 0.1265 µM): 0.299
relative viability ([3]; first compound 0.4 µM): 0.36
relative viability ([3]; first compound 1.265 µM): 0.307
relative viability ([3]; first compound 4 µM): 0.171
relative viability ([4]; first compound 0.2 µM): 0.32
relative viability ([4]; first compound 0.6325 µM): 0.365
relative viability ([4]; first compound 20 µM): 0.324
